# Source: US20040198663A1, “Method of treating cardiac ischemia by using erythropoietin” (priority 2003, published 2004)
# Columns and labels:
# nitric oxide synthase = test: Nitrite and nitrate release from isolated hearts; set-up: species or system rabbit; conditions: before 2.3±0.9
# Procedure: Nitrite and nitrate release from hearts before (2.3±0.9 nmoles/min/g) and after (2.4±1.9 nmoles/min/g) 15 minutes treatment with erythropoietin (1.0 U/ml, n=8) were not different.
# [1] = system: hearts from normoxic infant rabbits; test: Isolated Langendorff-perfused heart, 30 min global no-flow ischemia and 35 min reperfusion, normoxic hearts; set-up: species or system New Zealand White rabbit; conditions: for POST DRUG Coronary flow rate / POST DRUG Heart rate / POST DRUG Left ventricle developed pressure / POST DRUG Right ventricle developed pressure / REPERFUSION (35 min) Coronary flow rate / REPERFUSION (35 min) Heart rate / REPERFUSION (35 min) Left ventricle developed pressure / REPERFUSION (35 min) Right ventricle developed pressure: normoxic hearts; for REPERFUSION (35 min) Coronary flow rate / REPERFUSION (35 min) Heart rate / REPERFUSION (35 min) Left ventricle developed pressure / REPERFUSION (35 min) Right ventricle developed pressure: after 30 min ischemia
# Procedure: The study was directed to determining whether erythropoietin (0.5-10.0 U/ml) confers immediate cardioprotection in infant rabbit hearts and the contribution of protein kinases, nitric oxide synthase and potassium channels to the underlying mechanism. Hearts from normoxic infant Zealand White rabbits (n=8/group) were isolated and perfused in the Langendorff mode. Biventricular function was recorded under steady-state conditions prior to 30 minutes global no flow ischemia and 35 minutes reperfusion.
# (§1) Animals. Rabbits used in the study received humane care in compliance with the “Guide for the Care and Use of Laboratory Animals” formulated by the National Research Council, 1996. Infant New Zealand White rabbits were maintained for 10 days in a normoxic (SaO2>95%) or hypoxic (SaO2<85%) environment as described in Baker et al., Circulation 99:1249-54 (1999).
# (§2) Isolated heart perfusion. Isolated rabbit hearts were perfused with bicarbonate buffer at constant pressure in a retrograde manner and instrumented as described in Baker et al., Circulation 99:1249-54 (1999). Protein kinase inhibitors, potassium channel blockers or nitric oxide synthase inhibitors were added to this perfusate as needed. A 3-way tap, located immediately above the site of cannulation, allowed the entire perfusate to be diverted away from the heart to produce global, no-flow ischemia. Reperfusion was achieved by repositioning of the tap to allow perfusate to be delivered to the heart. Left and right ventricular function was monitored continuously throughout each experiment as described in Baker et al., Circulation 99:1249-54 (1999). End-diastolic pressure was initially set to 3 mmHg for 2 minutes. The balloons were then progressively inflated with a microsyringe to set end-diastolic pressures to 8 mmHg for the left ventricle and 4 mmHg for the right ventricle, with developed pressure and heart rate recorded during steady-state conditions. Coronary flow rate was measured throughout the experiment by timed collections of the coronary effluent from the right side of the heart into a graduated cylinder. Coronary flow rate was expressed as milliliters per minute per gram wet weight.
# (§3) Resistance to myocardial ischemia. Hearts from infant rabbits were perfused with bicarbonate buffer, and biventricular function was monitored continuously throughout each experiment as described in Rafiee et al., Circulation 106:239-45 (2002). For concentration response studies, hearts were then perfused with erythropoietin (0.5-10.0 U/ml) for 15 minutes prior to 30 minutes ischemia and 35 minutes reperfusion. For mechanism studies with protein kinase inhibitors, potassium channel blockers or nitric oxide synthase inhibitors, hearts were perfused with drugs for 15 minutes alone followed by 15 minutes in combination with erythropoietin prior to ischemia. Hearts perfused with protein kinase inhibitors or potassium channel blockers alone in the absence of erythropoietin for 30 minutes prior to ischemia served as untreated controls for these studies. Recovery of post-ischemic left and right ventricular developed pressure was expressed as a percentage of its pre-drug, pre-ischemic value.
# Assessment of ventricular function. Left and right ventricular function was monitored continuously throughout each experiment as described in Rafiee et al., Circulation 106:239-45 (2002).
# Hearts from New Zealand White rabbits at 9 days of age were perfused with erythropoietin at 0, 0.5, 1.0, 2.5, 5.0, and 10.0 U/ml for 15 minutes prior to 30 minutes global ischemia and 35 minutes reperfusion. Erythropoietin (1.0 U/ml) reduced coronary flow rate prior to ischemia from 7 ml/min/g to 6 ml/min/g but had no effect on heart rate (220±18 beats/min) or developed pressure in left (106±3 mm Hg) or right (42±3 mm Hg) ventricle.
# [2] = system: hearts from chronically hypoxic infant rabbits; set-up: species or system New Zealand White rabbit
# Text: as §1, §2, §3
# Hearts from 10 day old chronically hypoxic rabbits were treated with erythropoietin at a concentration of 1.0 U/ml.
# [3] = erythropoietin 1.0 U/ml, no effect
# [4] = chronically hypoxic hearts, EPO 1.0 U/ml for 15 min
# [5] = chronically hypoxic hearts, EPO 1.0 U/ml, after 30 min ischemia
substance,measurement,setting,value
"erythropoietin: Recombinant human erythropoietin, a glycoprotein hormone, obtained from Cell Science, Inc.",nitrite and nitrate release from hearts after treatment,"nitric oxide synthase; after 15-minute erythropoietin 1.0 U/ml, not different (discussion)",2.4 ± 0.9 nmol/min/g
same,nitrite and nitrate release from hearts after treatment,"nitric oxide synthase; after 15 minutes erythropoietin 1.0 U/ml, not different",2.4 ± 1.9 nmol/min/g
same,cardioprotection after 20 minutes treatment versus 15-minute treatment,[1]; 1.0 U/ml for 20 minutes,no further increase in cardioprotection
same,minimum treatment period needed to confer cardioprotection in both left and right ventricle,[1]; 1.0 U/ml prior to ischemia,15 min
same,protective concentrations of erythropoietin in the in vitro studies,[1]; 15 min prior to ischemia,0.5-5.0 units/ml
same,developed pressure in left ventricle prior to ischemia,[1]; [3],106±3 mm Hg
same,developed pressure in right ventricle prior to ischemia,[1]; [3],42±3 mm Hg
same,heart rate prior to ischemia,[1]; [3],220±18 beats/min
same,coronary flow rate prior to ischemia,"[1]; erythropoietin 1.0 U/ml, reduced from 7 ml/min/g",6 mL/min/g
same,POST DRUG Coronary flow rate,[1]; EPO 0.5 U/ml for 15 min,3 ± 1 mL/min/g
same,POST DRUG Heart rate,[1]; EPO 0.5 U/ml for 15 min,196 ± 21 beats/min
same,POST DRUG Left ventricle developed pressure,[1]; EPO 0.5 U/ml for 15 min,102 ± 8 mmHg
same,POST DRUG Right ventricle developed pressure,[1]; EPO 0.5 U/ml for 15 min,38 ± 5 mmHg
same,REPERFUSION (35 min) Coronary flow rate,[1]; EPO 0.5 U/ml,4 ± 1 mL/min/g
same,REPERFUSION (35 min) Heart rate,[1]; EPO 0.5 U/ml,210 ± 19 beats/min
same,REPERFUSION (35 min) Left ventricle developed pressure,[1]; EPO 0.5 U/ml,67 ± 3 mmHg
same,REPERFUSION (35 min) Right ventricle developed pressure,[1]; EPO 0.5 U/ml,31 ± 4 mmHg
same,POST DRUG Coronary flow rate,[1]; EPO 1.0 U/ml for 15 min,3 ± 1 mL/min/g
same,POST DRUG Heart rate,[1]; EPO 1.0 U/ml for 15 min,199 ± 25 beats/min
same,POST DRUG Left ventricle developed pressure,[1]; EPO 1.0 U/ml for 15 min,99 ± 4 mmHg
same,POST DRUG Right ventricle developed pressure,[1]; EPO 1.0 U/ml for 15 min,38 ± 3 mmHg
same,REPERFUSION (35 min) Coronary flow rate,[1]; EPO 1.0 U/ml,5 ± 1 mL/min/g
same,REPERFUSION (35 min) Heart rate,[1]; EPO 1.0 U/ml,210 ± 30 beats/min
same,REPERFUSION (35 min) Left ventricle developed pressure,[1]; EPO 1.0 U/ml,71 ± 8 mmHg
same,REPERFUSION (35 min) Right ventricle developed pressure,[1]; EPO 1.0 U/ml,31 ± 2 mmHg
same,POST DRUG Coronary flow rate,[1]; EPO 2.5 U/ml for 15 min,4 ± 1 mL/min/g
same,POST DRUG Heart rate,[1]; EPO 2.5 U/ml for 15 min,210 ± 20 beats/min
same,POST DRUG Left ventricle developed pressure,[1]; EPO 2.5 U/ml for 15 min,103 ± 4 mmHg
same,POST DRUG Right ventricle developed pressure,[1]; EPO 2.5 U/ml for 15 min,41 ± 5 mmHg
same,REPERFUSION (35 min) Coronary flow rate,[1]; EPO 2.5 U/ml,5 ± 2 mL/min/g
same,REPERFUSION (35 min) Heart rate,[1]; EPO 2.5 U/ml,224 ± 14 beats/min
same,REPERFUSION (35 min) Left ventricle developed pressure,[1]; EPO 2.5 U/ml,64 ± 3 mmHg
same,REPERFUSION (35 min) Right ventricle developed pressure,[1]; EPO 2.5 U/ml,31 ± 3 mmHg
same,POST DRUG Coronary flow rate,[1]; EPO 5.0 U/ml for 15 min,4 ± 1 mL/min/g
same,POST DRUG Heart rate,[1]; EPO 5.0 U/ml for 15 min,221 ± 20 beats/min
same,POST DRUG Left ventricle developed pressure,[1]; EPO 5.0 U/ml for 15 min,102 ± 6 mmHg
same,POST DRUG Right ventricle developed pressure,[1]; EPO 5.0 U/ml for 15 min,43 ± 7 mmHg
same,REPERFUSION (35 min) Coronary flow rate,[1]; EPO 5.0 U/ml,4 ± 1 mL/min/g
same,REPERFUSION (35 min) Heart rate,[1]; EPO 5.0 U/ml,226 ± 26 beats/min
same,REPERFUSION (35 min) Left ventricle developed pressure,[1]; EPO 5.0 U/ml,64 ± 4 mmHg
same,REPERFUSION (35 min) Right ventricle developed pressure,[1]; EPO 5.0 U/ml,32 ± 5 mmHg
same,POST DRUG Coronary flow rate,[1]; EPO 10 U/ml for 15 min,5 ± 2 mL/min/g
same,POST DRUG Heart rate,[1]; EPO 10 U/ml for 15 min,232 ± 52 beats/min
same,POST DRUG Left ventricle developed pressure,[1]; EPO 10 U/ml for 15 min,101 ± 5 mmHg
same,POST DRUG Right ventricle developed pressure,[1]; EPO 10 U/ml for 15 min,40 ± 5 mmHg
same,REPERFUSION (35 min) Coronary flow rate,[1]; EPO 10 U/ml,5 ± 1 mL/min/g
same,REPERFUSION (35 min) Heart rate,[1]; EPO 10 U/ml,230 ± 49 beats/min
same,REPERFUSION (35 min) Left ventricle developed pressure,[1]; EPO 10 U/ml,52 ± 3 mmHg
same,REPERFUSION (35 min) Right ventricle developed pressure,[1]; EPO 10 U/ml,28 ± 4 mmHg
same,adverse effect on ischemic myocardium,[2],did not appear to exert any adverse effect
same,POST DRUG Coronary flow rate,[2]; [4],5 ± 1 mL/min/g
same,POST DRUG Heart rate,[2]; [4],181 ± 16 beats/min
same,POST DRUG Left ventricle developed pressure,[2]; [4],117 ± 15 mmHg
same,POST DRUG Right ventricle developed pressure,[2]; [4],46 ± 8 mmHg
same,REPERFUSION (35 min) Coronary flow rate,[2]; [5],6 ± 2 mL/min/g
same,REPERFUSION (35 min) Heart rate,[2]; [5],204 ± 25 beats/min
same,REPERFUSION (35 min) Left ventricle developed pressure,[2]; [5],77 ± 7 mmHg
same,REPERFUSION (35 min) Right ventricle developed pressure,[2]; [5],42 ± 6 mmHg
